The nature of series [1]: Solubility of the conjugate in water. The series is classed as physicochemical. To be noted: compared with conjugate at 3-position in Example 1.
Series [2] can be described thus: Solubility in a mixed solvent of 98 vol.% of water and 2 vol.% of ethanol (method of Example 1). To be noted: for solubility: water/ethanol 98:2, organic solvent or mixture. The class given is physicochemical. As to the method:
The conjugate is dissolved at 4.39×10^-5 mole/liter (30 mg/liter) in a mixed solvent of 98 vol.% of water and 2 vol.% of ethanol.
Solubility of dehydroepiandrosterone in the same mixed solvent measured by absorbance at 235 mμ is 0.24×10^-5 mole/liter.

Series [3] concerns antibody which is active to the ketone group at 17-position of dehydroepiandrosterone. As to the kind of experiment: Competitive immunoassay with tritium-labelled dehydroepiandrosterone bound to antibody. To be noted: FIG. 1, curves A and B. The class given is binding. As to the method: In order to confirm the presence of C-D complex combined to AP, the combined product was analyzed by a competitive immunoassay method described in Seikagaku Jikken Koza (Biochemical Experiment Hormones (First) Page 217 to 252 (by Nippon Seikagaku Kai) (published by Tokyo Kagaku Dojin in 1977).
Dehydroepiandrosterone labelled by tritium (^3 H) was bound to the antibody which is active to the ketone group at 17-position of dehydroepiandrosterone. The combined product or dehydroepiandrosterone was added to the system of the antibody and the labelled compound to measure the amount of free ^3 H-dehydroepiandrosterone release from the system.

Where [4] appears, read: mixed solvent of 98 vol.% of water and 2 vol.% of ethanol, read-out: Solubility.

Data on five compounds can be found in patent publication US4296233A, “Conjugate of amino sugar-steroid hormone” (Kureha Kagaku Kogyo Kabushiki Kaisha, priority 1978, dated 1981).

Structures are written as SMILES. In brackets after ≈: the same amount, converted by molar mass. Several values for one entry are separate records, joined by “and”; a condition that tells them apart may be missing. Equal entries are not always repeated. Where two headings read alike, the source gives them in different places.

`C[C@]12CC[C@H]3[C@@H](CC=C4C[C@@H](O)CC[C@@]43C)[C@@H]1CC[C@@H]2OC(=O)COC(=O)[C@H]1O[C@@H](O[C@H]2[C@@H](O)[C@@H](CO)OC(O)[C@@H]2N)[C@H](O)[C@@H](O)[C@@H]1O` (mixture of isomers) [Example 3, Conjugate of dehydroepiandrosterone (hereinafter referring as to DHS) and chondrosine at 17-position with a binding agent of bromoacetyl bromide]: in series [1], the “solubility of the conjugate in water” value is given as “substantially same with that of the conjugate at 3-position in Example 1”.
Regarding `C[C@]12CCC(OC(=O)[C@H]3OC(O)[C@H](N)[C@@H](O)[C@@H]3O)CC1=CC[C@@H]1[C@@H]2CC[C@]2(C)C(=O)CC[C@@H]12` (mixture of isomers) [Example 4, Conjugate of DHS and 2-amino-2-deoxy-α-D-glucuronic acid], the solubility in series [2] (setting [4]) worked out at 40.2 µM.
Consider `C[C@]12CC[C@H](OC(=O)COC(=O)[C@H]3O[C@@H](O[C@H]4[C@@H](O)[C@@H](CO)OC(O)[C@@H]4N)[C@H](O)[C@@H](O)[C@@H]3O)CC1=CC[C@@H]1[C@@H]2CC[C@]2(C)C(=O)CC[C@@H]12` (stereo partly drawn) [Example 1, conjugate of 3β-hydroxy-5-androsten-17-one(dehydroepiandrosterone) at 3-position and 2-amino-2-deoxy-3-O-β-glucopyranurosyl-D-galactose (chondrosine) at 6-position with a binding agent of bromoacetyl bromide], for which, in series [2] (versus dehydroepiandrosterone, same mixed solvent), the “solubility of the conjugate relative to the non-conjugate dehydroepiandrosterone” value was “more than 18 times”. Further, the solubility in series [2] (setting [4]) was 43.9 µM and 30 µg/mL.
Regarding `C[C@]12CC[C@@H]3c4ccc(O)cc4CC[C@H]3[C@@H]1CC[C@@H]2OC(=O)COC(=O)[C@H]1O[C@@H](O[C@H]2[C@@H](O)[C@@H](CO)OC(O)[C@@H]2N)[C@H](O)[C@@H](O)[C@@H]1O` (stereo partly drawn) [Example 2, conjugate of 1,3,5(10)-estratriene-3,17β-diol (estradiol) and chondrosine at 17-position with a binding agent of bromoacetyl bromide], the “solubility of the product relative to that of estradiol” value in series [2] (versus estradiol, method of Example 1) is “about 20 times”. In addition, the solubility in series [2] (setting [4]) worked out at 65 µM.
For `C[C@]12CC[C@H](O)CC1=CC[C@@H]1[C@@H]2CC[C@]2(C)C(=O)CC[C@@H]12` [dehydroepiandrosterone, 3β-hydroxy-5-androsten-17-one, reference compound], the solubility in series [2] (same mixed solvent, measured by absorbance at 235 mμ, read-out: Solubility of dehydroepiandrosterone) is 2.4 µM (≈ 0.692 µg/mL). For the same compound, the “amount of free ^3 H-dehydroepiandrosterone released / binding to the antibody” value in series [3] is given as “the amount of free ^3 H-dehydroepiandrosterone was increased by the addition of the combined product or dehydroepiandrosterone whereby the their binding to the antibody is found”.

By solubility is commonly meant how much of the substance goes into solution per volume.
